Data from EP1902732A1, “PROPHYLACTIC/THERAPEUTIC AGENT FOR HER2-EXPRESSING CANCER” (Takeda Pharmaceutical Company Limited, priority 2005, dated 2006).

Legend:
[1] = tested on: phosphorylated S6 kinase (S6K); experiment: Western blotting of phosphorylated S6K in BT-474 cells; type: cell-based, human; details: Example 7, two hours, antimycin 1-0.01 nmol/L, oligomycin 100-1 ng/mL, 2,4-dinitrophenol 300-3 µmol/L
Protocol: Human HER2-expressing human breast cancer cell line BT-474 (purchased from American Tissue Culture Collection (ATCC)) was seeded into a 24-multiwell plate (BT-474: 1.2 x 10^5 cells/well) and cultured overnight in a carbon dioxide gas incubator (5% CO2, 37°C). As an energy metabolism inhibitor having a mechanism that differed from that of rotenone, mitochondrial respiratory chain complex III-inhibiting compound antimycin (Wako Pure Chemical Industries) was added to final concentrations of 1, 0.3, 0.1, 0.03 and 0.01 nmol/L while continuing culture. Using another plate, mitochondrial respiratory chain complex V-inhibiting compound oligomycin (Wako Pure Chemical Industries) was added to final concentrations of 100, 30, 10, 3 and 1 ng/mL while continuing culture. In addition, 2,4-dinitrophenol was added to 300, 100, 30, 10 and 3 µmol/L while continuing culture. Two hours after the addition of the agent, the broth was removed and the cells were lysed with an SDS sample buffer (200 µL). Then, this cell lysate was used to perform western blotting analysis. Specifically, this cell lysate (8 µL) was separated by an SDS-PAGE method (gel concentration: 7.5-15%) (Analytical Biochemistry, No. 166, pp. 368-379, 1987) and transferred onto a nitrocellulose membrane (BioRad). Then, an antibody specific to phosphorylated HER2 (Cell signaling technology, Code# 2244), pACC antibody specific to phosphorylated acetyl-CoA carboxylase (ACC) (Cell signaling technology, Code# 3661) and anti-phosphorylated S6K antibody specific to phosphorylated S6 kinase (S6K) (Cell signaling technology, Code# 9209) were used to detect the antibody by chemiluminescent detection with an ECL system (Amersham) to quantify an amount of phosphorylated protein with LAS-1000 plus image analysis device (FUJIFILM).

[2] = tested on: A549 non-small cell lung cancer cell; experiment: Viable cell count using Cell Counting Kit-F; type: cell-based, human; details: HER2-expressing cancer, five days of culture
Protocol: BT-474 breast cancer cell, MDA-MB-453 breast cancer cell, A549 non-small cell lung cancer cell and LNCaP prostate cancer cell were used as human HER2-expressing cells while MDA-MB-231 breast cancer cell and A498 kidney cancer cell (all purchased from ATCC) were used as HER2-nonexpressing cells. Each of the cells used had been seeded into a 96-plate at 500cells/150 µL/well and cultured overnight. Each of the compounds, i.e., antimycin (final concentrations: 1, 0.1, 0.01 and 0.001 µmol/L), 2,4-dinitrophenol (final concentrations: 0.6, 0.2, 0.06 and 0.02 mmol/L), metformin (final concentrations: 25, 5, 1 and 0.2 mmol/L) and AICAR (final concentrations: 25, 5, 1 and 0.2 mmol/L) was diluted with a medium and added for 50 µL/well at a time to the final concentrations mentioned above. Following five days of culture at 37°C in 5% CO2, the cells were counted using Cell Counting Kit-F (Dojindo Laboratories).
Viable cell count using Cell Counting Kit-F was carried out by the following method according to the attached instruction. The supernatant was removed from the 96-well plate after five days of culture. Cell Counting Kit-F diluted 1000-fold with an RPMI medium (phenol red-free, serum-free) was added for 100 µL/well at a time. After 30 minutes of reaction at room temperature, fluorescence (excitation wavelength; 480 nm, fluorescent wavelength; 530 nm) was determined with a fluorescent plate reader.
From the determination results, percentage of the fluorescence level in the wells added with the compound was determined assuming that the fluorescence level in the wells without the addition of the compound (control) is 100%, and the remaining cellular quantity was determined in % with respect to that of the control.

DU145 = experiment: Viable cell count using Cell Counting Kit-F; type: cell-based; details: HER2-nonexpressing cancer, five days of culture

Row | Molecule | phosphorylation of S6K [1] | minimum concentrations for inhibiting cell proliferation for 50% or more [2] | minimum concentrations for inhibiting cell proliferation for 50% or more (DU145)
1 | O=[N+]([O-])c1ccc(O)c([N+](=O)[O-])c1 [2,4-dinitrophenol] | suppressed | <0.02 mmol/L | 0.067 mmol/L
2 | antimycin | suppressed | 1e-05 mmol/L | >0.0001 mmol/L
